From patent publication US8623899B2, “Bis-benzimidazole derivatives as hepatitis C virus inhibitors” (Janssen Research & Development Ireland, priority 2009, dated 2014)

tested on: HCV type 1b replicon in Huh-7 luc/neo (Huh-Luc) cells; assay: HCV replicon assay (Huh-Luc, luciferase readout); assay type: cell-based; settings: Hepatitis C virus, Huh-7, 72 h, luciferase activity, incubation of three days, read-out: HCV-REP-HUH7LUC_EC50
Text: The compounds of formula (I) were examined for inhibitory activity in the HCV replicon. This cellular assay is based on a bicistronic expression construct, as described by Lohmann et al. (1999) Science vol. 285 pp. 110-113 with modifications described by Krieger et al. (2001) Journal of Virology 75: 4614-4624, in a multi-target screening strategy.
In essence, the method was as follows:
The assay utilized the stably transfected cell line Huh-7 luc/neo (hereafter referred to as Huh-Luc). This cell line harbors an RNA encoding a bicistronic expression construct comprising the wild type NS3-NS5B regions of HCV type 1b translated from an Internal Ribosome Entry Site (IRES) from encephalomyocarditis virus (EMCV), preceded by a reporter portion (FfL-luciferase), and a selectable marker portion (neo^R, neomycine phosphotransferase). The construct is flanked by 5′ and 3′ NTRs (non-translated regions) from HCV type 1b. Continued culture of the replicon cells in the presence of G418 (neo^R) is dependent on the replication of the HCV RNA. The stably transfected replicon cells that express HCV RNA, which replicates autonomously and to high levels, encoding inter alia luciferase, were used for screening the antiviral compounds.
The replicon cells were plated in 384 well plates in the presence of the test and control compounds which were added in various concentrations. Following an incubation of three days, HCV replication was measured by assaying luciferase activity (using standard luciferase assay substrates and reagents and a Perkin Elmer ViewLux™ ultraHTS microplate imager). Replicon cells in the control cultures have high luciferase expression in the absence of any inhibitor. The inhibitory activity of the compound on luciferase activity was monitored on the Huh-Luc cells, enabling a dose-response curve for each test compound. EC50 values were then calculated, which represent the amount of compound required to decrease the level of detected luciferase activity by 50%, or more specifically, to reduce the ability of the genetically linked HCV replicon RNA to replicate.

Compound	EC50
O=C([C@@H](c1ccccc1)N1CCCC1)N1CCC[C@H]1c1nc2ccc(-c3ccc(-c4ccc5nc([C@@H]6CCCN6C(=O)[C@@H](c6ccccc6)N6CCCC6)[nH]c5c4)cc3)cc2[nH]1 [Compound 45]	0.051 nM
CCC(=O)N[C@@H](C(=O)N1CCC[C@H]1c1nc2ccc(-c3ccc(-c4ccc5nc([C@@H]6CCCN6C(=O)[C@H](NC(=O)CC)c6ccccc6)[nH]c5c4)cc3)cc2[nH]1)c1ccccc1 [Compound 22]	0.034 nM
COC(=O)N[C@@H](CC(C)C)C(=O)N1CCC[C@H]1c1nc2ccc(-c3ccc(-c4ccc5nc([C@@H]6CCCN6C(=O)[C@H](CC(C)C)NC(=O)OC)[nH]c5c4)cc3)cc2[nH]1 [Compound 56]	0.012 nM
CC(C)C[C@@H](C(=O)N1CCC[C@H]1c1nc2ccc(-c3ccc(-c4ccc5nc([C@@H]6CCCN6C(=O)[C@H](CC(C)C)N(C)C)[nH]c5c4)cc3)cc2[nH]1)N(C)C [Compound 26]	76 nM
COC(=O)N[C@H](C(=O)N1CCC[C@H]1c1nc2ccc(-c3ccc(-c4ccc5nc([C@@H]6CCCN6C(=O)[C@@H](NC(=O)OC)C(C)C)[nH]c5c4)cc3)cc2[nH]1)C(C)C [Compound 30]	0.006 nM
Cc1nc(C(=O)N2CCC[C@H]2c2nc3ccc(-c4ccc(-c5ccc6nc([C@@H]7CCCN7C(=O)c7nc(C)oc7C)[nH]c6c5)cc4)cc3[nH]2)c(C)o1 [Compound 24]	1.4 nM
CC(C)OC(=O)N[C@H](C(=O)N1CCC[C@H]1c1nc2ccc(-c3ccc(-c4ccc5nc([C@@H]6CCCN6C(=O)[C@@H](NC(=O)OC(C)C)C(C)C)[nH]c5c4)cc3)cc2[nH]1)C(C)C [Compound 52]	> 98 nM
O=C(CC1CCCCC1)N1CCC[C@H]1c1nc2ccc(-c3ccc(-c4ccc5nc([C@@H]6CCCN6C(=O)CC6CCCCC6)[nH]c5c4)cc3)cc2[nH]1 [Compound 29]	550 nM
COC(=O)N[C@H](C(=O)N1CCC[C@H]1c1nc2cc(-c3ccc(-c4ccc5nc([C@@H]6CCCN6C(=O)[C@@H](NC(=O)OC)[C@@H](C)OC)[nH]c5c4)cc3)ccc2[nH]1)[C@@H](C)OC [Compound 2]	0.021 nM
O=C(Cc1ccccc1OC(F)(F)F)N1CCC[C@H]1c1nc2ccc(-c3ccc(-c4ccc5nc([C@@H]6CCCN6C(=O)Cc6ccccc6OC(F)(F)F)[nH]c5c4)cc3)cc2[nH]1 [Compound 11]	160 nM
O=C([C@@H]1CCCO1)N1CCC[C@H]1c1nc2ccc(-c3ccc(-c4ccc5nc([C@@H]6CCCN6C(=O)[C@@H]6CCCO6)[nH]c5c4)cc3)cc2[nH]1 [Compound 14]	36 nM
COC(=O)N[C@H](C(=O)N1CCC[C@H]1c1nc2ccc(-c3ccc(-c4ccc5nc([C@@H]6CCCN6C(=O)[C@@H](NC(=O)OC)C(C)(C)C)[nH]c5c4)cc3)cc2[nH]1)C(C)(C)C [Compound 37]	0.01 nM
CC(C)[C@@H](C(=O)N1CCC[C@H]1c1nc2ccc(-c3ccc(-c4ccc5nc([C@@H]6CCCN6C(=O)[C@H](C(C)C)N6CCCNC6=O)[nH]c5c4)cc3)cc2[nH]1)N1CCCNC1=O [Compound 54]	0.065 nM
CNC(=O)N[C@H](C(=O)N1CCC[C@H]1c1nc2ccc(-c3ccc(-c4ccc5nc([C@@H]6CCCN6C(=O)[C@@H](NC(=O)NC)C(C)C)[nH]c5c4)cc3)cc2[nH]1)C(C)C [Compound 23]	0.57 nM
CC(C)[C@@H](C(=O)N1CCC[C@H]1c1nc2ccc(-c3ccc(-c4ccc5nc([C@@H]6CCCN6C(=O)[C@H](C(C)C)N(C)C)[nH]c5c4)cc3)cc2[nH]1)N(C)C [Compound 28]	70 nM
